Data on 15 molecules can be found in ChEMBL document CHEMBL3352519, “Discovery of a novel pyrazole series of group X secreted phospholipase A2 inhibitor (sPLA2X) via fragment based virtual screening” (Bioorg Med Chem Lett, 2014).

Each structure is given as a SMILES string.

Experiment [1] addresses T1, Group 10 secretory phospholipase A2 (Homo sapiens, UniProt O15496).
T1 sequence (O15496 whole entry): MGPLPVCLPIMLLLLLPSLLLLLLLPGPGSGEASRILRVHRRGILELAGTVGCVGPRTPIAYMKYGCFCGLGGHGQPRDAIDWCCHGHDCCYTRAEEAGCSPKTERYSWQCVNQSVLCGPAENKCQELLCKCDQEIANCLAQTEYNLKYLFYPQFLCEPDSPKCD
Kind of experiment: Inhibition of human sPLA2X using 1,2-bis(heptanoylthio) glycerophosphocholine substrate incubated for 30 mins.

In experiment [2] the target is T1, Group 10 secretory phospholipase A2. Kind of experiment: (§1) Binding affinity to sPLA2X (unknown origin) by NMR spectroscopy based displacement assay.
Experiment [3] has as its target T2, Group 10 secretory phospholipase A2 (Homo sapiens) (UniProt O15496).
T2 sequence (whole entry): T1 sequence (O15496 whole entry)
Described as §1. The settings on record: concentration not given here.

Experiment [4] deals with T1, Group 10 secretory phospholipase A2. Kind of experiment: Binding affinity to sPLA2X (unknown origin).

For `Cc1sc(-c2ccccc2)cc1-c1cc(C(N)=O)n[nH]1`, half-maximal inhibition in experiment [1] (IC50) was put at 347 nM.

Regarding `Cc1cc(-c2cc(C(N)=O)n[nH]2)c(C)s1`, the IC50 – broadly, the midpoint of a concentration-inhibition curve – in experiment [1] was 316 nM; in experiment [2] it was 20000 nM. For the same molecule, the inhibition (in general, the relative decrease from the control value, in per cent) in experiment [3] turned out to be 57%.

In experiment [1], `Cc1cc(-c2cc(C(N)=O)nn2C)c(C)s1` had an IC50 of 851 nM.

`Oc1nc(-c2ccccc2)c(-c2ccccc2)[nH]1` returned an IC50 in experiment [2] of 45000 nM. In experiment [3], the inhibition worked out at 88%.

`NC(=O)c1cc(-c2ccccc2Cl)[nH]n1` showed an IC50 in experiment [1] of 9330 nM.

On to `COc1ccc2c(C(O)C(N)=O)c(C)n(Cc3ccccc3)c2c1` (stereo not given), for which the IC50 in experiment [4] worked out at 250000 nM.

Consider `Cc1sc(-c2ccccc2)cc1-c1cc(C(N)=O)nn1C`, for which 1200 nM corresponded to half-maximal inhibition in experiment [1] (IC50).

In experiment [1], `Cc1sc(C(C)C)cc1-c1cc(C(N)=O)n[nH]1` showed an IC50 below 51.3 nM.

With `Cc1sccc1-c1cc(C(N)=O)n[nH]1`, the IC50 in experiment [1] is 631 nM.

Take `Cc1sc2ccccc2c1-c1cc(C(N)=O)nn1C`: in experiment [1], the midpoint of inhibition, the IC50, lay at 851 nM.

In turn, `Cc1sc2ccccc2c1-c1cc(C(N)=O)n[nH]1` had an IC50 in experiment [1] of 174 nM.

Turning to `O=C(O)c1csc(-c2ccc3c(c2)CCO3)n1`, the IC50 in experiment [2] amounted to 70000 nM. In experiment [3], this molecule gave an inhibition of 80%.

`O=C(O)c1ccc(-n2ncc3ccccc3c2=O)cc1` gave an IC50 in experiment [2] of 50000 nM. The molecule further yielded an inhibition in experiment [3] of 76%.

For the molecule `Cc1ccccc1-c1cc(C(N)=O)n[nH]1`, in experiment [1], the IC50 was 2750 nM.

In turn, `NC(=O)c1cc(-c2cc(Cl)sc2Cl)[nH]n1` showed an IC50 in experiment [1] of 398 nM.
